# In patent publication US20030049337A1, “Composition for preventing fructose absorption” (NAGAOKA PERFUMERY CO., LTD, priority 2001, published 2003):
# Test system: Wistar SPF rats
# Settings: rat, in vivo
# Protocol: The subacute toxicity test by oral administration was conducted using Wistar SPF rats. That is, the rats were divided into the control group (n=7) to which the athrocytosis of the usual feed is carried out, and the eucalyptus group (n=7) to which the athrocytosis of the feed which mixed the eucalyptus extract of 1 volume % with usual feed is carried out, and bred each individually. The rats of these groups were made to carry out free ingestion of feed and the potable water.
# The amount of food ingested and the amount of drinking water of rats of these groups were measured every day, and weight change was measured twice per week. The test was continued for five weeks. After the test end, by collecting blood from the heart, rats were made to die and pathological changes, malformation, etc. of each organization, such as internal organs, were confirmed after dissection.
substance,measurement,value
eucalyptus extract,amount of cholesterol in liver vs control group,significant difference was not observed
same,amount of drinking water vs control group,significant difference was not accepted
same,amount of food ingested vs control group,significant difference was not accepted
same,amount of triglyceride in liver vs control group,significant difference was not observed
same,weight change vs control group,significant difference was not accepted
